{
  "source": "patent US7084109B2",
  "about": "“FVIIa antagonists” (Genentech, Inc., priority 1999, dated 2006)",
  "key": {"[1]": {"system": "TF dependent extrinsic clotting pathway in human plasma", "experiment": "Prothrombin time (PT) clotting assay", "protocol": "Clotting Assays—Prothrombin time (PT) and activated partial thromboplastin time (APTT) clotting time assays were performed in citrated pooled normal plasmas (human or various animal species). Clotting times were determined using an ACL 300 Automated Coagulation Analyzer (Coulter Corp., Miami, Fla.) and commercially available reagents as follows.\nFor the PT assay, aqueous solutions of inhibitor at various concentrations were added to citrated pooled normal plasma in a ratio of 1 part inhibitor to 9 parts plasma. Following a 30 min incubation, these mixtures were added to sample cups of an ACL 300 Analyzer. Innovin® (Dade International Inc., Miami, Fla.), a mixture of human relipidated tissue factor and Ca^2+ ions was added to the reagent cup. Precise volumes of sample and Innovin® (50 μl sample, 100 μl Innovin) were automatically transferred to cells of an acrylic rotor pre-equilibrated to 37° C. Following a 2 min incubation period, coagulation was initiated by mixing the two components by centrifugation. Coagulation was monitored optically and clotting time was reported in seconds. In this system, the clotting time of control plasmas (plasma plus inhibitor diluent) was typically 8 to 10 seconds. The fold prolongation is the clotting time of the inhibitor relative to the clotting time of the control.\nClotting Assays—The PT clotting assay was carried out as described in Example 1."}, "TF-FVIIa": {"molecular_target": "TF-FVIIa (Homo sapiens, UniProt P08709)", "sequence (P08709 61-212 limits assumed)": "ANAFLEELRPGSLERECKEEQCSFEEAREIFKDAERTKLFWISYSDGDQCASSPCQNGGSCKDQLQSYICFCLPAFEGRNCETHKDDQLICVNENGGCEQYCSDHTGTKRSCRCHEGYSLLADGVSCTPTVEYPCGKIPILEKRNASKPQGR", "sequence (P08709 213-466 limits assumed)": "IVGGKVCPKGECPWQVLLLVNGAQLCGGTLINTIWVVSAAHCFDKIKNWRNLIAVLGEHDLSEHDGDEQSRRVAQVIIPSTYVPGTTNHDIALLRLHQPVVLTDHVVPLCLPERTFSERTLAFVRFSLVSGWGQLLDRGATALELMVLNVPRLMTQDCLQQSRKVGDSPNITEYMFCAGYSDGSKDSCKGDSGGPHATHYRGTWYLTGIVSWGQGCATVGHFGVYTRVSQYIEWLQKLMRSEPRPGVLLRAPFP", "sequence (P13726 33-275 partner limits assumed)": "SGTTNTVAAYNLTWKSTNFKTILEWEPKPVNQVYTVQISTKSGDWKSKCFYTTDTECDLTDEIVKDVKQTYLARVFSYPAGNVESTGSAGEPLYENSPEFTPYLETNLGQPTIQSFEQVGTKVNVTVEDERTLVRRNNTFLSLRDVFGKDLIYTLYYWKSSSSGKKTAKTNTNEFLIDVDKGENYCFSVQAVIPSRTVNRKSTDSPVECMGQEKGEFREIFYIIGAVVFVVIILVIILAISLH", "experiment": "FX Activation Assay (activation of FX by TF-FVIIa)", "assay_type": "biochemical", "protocol": "FX Activation Assay—Activation of FX by TF-FVIIa was monitored at room temperature as a function of peptide concentration. Each assay sample contained 100 μl of 460 pM relipidated TF1-243 (TFPC) (Kelley, R. F. et al. (1997) Blood 89:3219-3227) and 30 pM FVIIa in HBS/Ca buffer (20 mM HEPES, pH 7.4, 5 mM CaCl2, 150 mM NaCl, 0.1% PEG 8000); after 20 min, 25 μl of peptide diluted in HBS/Ca Buffer was added. Following a 30 min incubation the reaction was initiated by the addition of 25 μl of 1 μM FX in HBS/Ca (Note: this yields a final concentration of 306 pM TFPC, 20 pM FVIIa, and 166 nM FX). For kinetic analysis, the final concentration of FX was varied from between 20 and 500 nM. Aliquots of 25 μl were removed at 1, 3, 5, 7 and 9 min and quenched in 25 μl of 50 mM EDTA. The FXa generated in each aliquot could be measured by the addition of 100 μl of 250 nM Spectrozyme fXa (American Diagnostica), 50 mM Tris, pH 8, 50 mM NaCl, 0.0025% Triton X-100. The rate of FXa generated at each peptide concentration was proportional to the initial slope of the absorbance at 405 nm vs. time. Sigmoidal curves were fit to a four parameter equation by nonlinear regression analysis (Marquardt, J. Soc. Indust. Appl. Math. 11:431-441 (1963); the concentration of each peptide required to give a half-maximal signal in the assay was calculated from the curves and is referred to as the IC50 value. […]"}},
  "note": "No end group written: not given here.",
  "data": [
    {"substance": "TF151-Fc: peptide sequence TF151 with a GGGSSG linker fused to the Fc portion of human IgG1, expressed in insect cells; forms a dimer (SQAQRRAVGALCDNPRIDRWYCQFVEGGGGSSG-{human IgG1 Fc}; cysteine pairing not given here; also: dimer)", "values": [
      {"measurement": "prolongation of the prothrombin time (potency)", "setting": "[1]", "result": "comparable to peptide TF151"},
      {"measurement": "ability to inhibit FX activation by TF-FVIIa", "setting": "TF-FVIIa", "result": "comparable to the peptide TF151"}
    ]}
  ]
}
